Laboratory results: patent US8710065B2, “Tricyclic inhibitors of kinases” (AbbVie Inc., priority 2011, dated 2014)

Each molecule was assayed against T1, GST-tagged-Wee1 kinase (Homo sapiens, UniProt P30291) (assay: Wee1 time-resolved fluorescence equilibrium binding assay (displacement of Oregon Green-labeled ATP-competitive kinase probe)). Conditions: read-out: Wee-1 inhibition (Ki).
T1 construct: purchased Carnabio (Carna Biosciences) 05-177
In short: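 Time-resolved fluorescence equilibrium binding with GST-Wee1, measuring displacement of a rapidly reversible Oregon Green-labelled ATP-competitive probe by competitive inhibitors; values reported as Ki.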

T1 sequence (P30291 whole entry): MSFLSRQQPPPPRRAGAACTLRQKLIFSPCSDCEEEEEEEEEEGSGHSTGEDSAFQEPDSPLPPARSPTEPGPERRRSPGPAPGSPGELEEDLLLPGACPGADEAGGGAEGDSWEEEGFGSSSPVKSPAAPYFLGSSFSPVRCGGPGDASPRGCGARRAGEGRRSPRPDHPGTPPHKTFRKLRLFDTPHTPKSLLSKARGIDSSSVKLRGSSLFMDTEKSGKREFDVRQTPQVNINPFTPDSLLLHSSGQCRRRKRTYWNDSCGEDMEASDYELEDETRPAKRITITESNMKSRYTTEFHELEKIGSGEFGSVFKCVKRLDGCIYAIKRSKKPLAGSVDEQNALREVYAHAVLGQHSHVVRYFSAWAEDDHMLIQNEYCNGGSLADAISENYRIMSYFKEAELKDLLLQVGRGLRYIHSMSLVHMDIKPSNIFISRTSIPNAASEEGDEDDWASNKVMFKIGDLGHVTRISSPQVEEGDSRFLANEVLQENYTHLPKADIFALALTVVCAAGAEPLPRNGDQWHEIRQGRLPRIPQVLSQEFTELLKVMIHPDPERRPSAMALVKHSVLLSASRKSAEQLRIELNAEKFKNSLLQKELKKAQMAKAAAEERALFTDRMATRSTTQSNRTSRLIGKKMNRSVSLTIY

SMILES | Ki [nM]
CN1CCN(c2ccc(Nc3ncc4c(=O)n(-c5ccc(C(F)(F)F)cc5Cl)c5nccn5c4n3)cc2)CC1 [Example 340, 6-[2-chloro-4-(trifluoromethyl)phenyl]-2-{[4-(4-methylpiperazin-1-yl)phenyl]amino}imidazo[1,2-a]pyrimido[5,4-e]pyrimidin-5(6H)-one] | > 100
CC1(C)CN(CC(F)(F)F)Cc2cc(Nc3ncc4c(=O)n(-c5c(Cl)cccc5Cl)c5nccn5c4n3)ccc21 [Example 170, 6-(2,6-dichlorophenyl)-2-{[4,4-dimethyl-2-(2,2,2-trifluoroethyl)-1,2,3,4-tetrahydroisoquinolin-7-yl]amino}imidazo[1,2-a]pyrimido[5,4-e]pyrimidin-5(6H)-one] | 10 to 100
O=c1c2cnc(Nc3ccc(Cn4ccnc4)cc3)nc2n2ccnc2n1-c1ccccc1Cl [Example 79, 6-(2-chlorophenyl)-2-{[4-(1H-imidazol-1-ylmethyl)phenyl]amino}imidazo[1,2-a]pyrimido[5,4-e]pyrimidin-5(6H)-one] | < 10
CS(=O)(=O)N1CCc2cc(Nc3ncc4c(=O)n(-c5c(Cl)cccc5Cl)c5nccn5c4n3)ccc2C1 [Example 330, 6-(2,6-dichlorophenyl)-2-{[2-(methylsulfonyl)-1,2,3,4-tetrahydroisoquinolin-6-yl]amino}imidazo[1,2-a]pyrimido[5,4-e]pyrimidin-5(6H)-one] | < 10
CN1CCC(C(=O)Nc2ccc(Nc3ncc4c(=O)n(-c5ccccc5Cl)c5nccn5c4n3)cc2)CC1 [Example 60, N-(4-{[6-(2-chlorophenyl)-5-oxo-5,6-dihydroimidazo[1,2-a]pyrimido[5,4-e]pyrimidin-2-yl]amino}phenyl)-1-methylpiperidine-4-carboxamide] | < 10
O=c1c2cnc(Nc3ccc4ncsc4c3)nc2n2ccnc2n1-c1c(Cl)cccc1Cl [Example 182, 2-(1,3-benzothiazol-6-ylamino)-6-(2,6-dichlorophenyl)imidazo[1,2-a]pyrimido[5,4-e]pyrimidin-5(6H)-one] | < 10
O=c1c2cnc(Nc3ccc(-c4csc(N5CCOCC5)n4)cc3)nc2n2ccnc2n1-c1ccccc1Cl [Example 360, 6-(2-chlorophenyl)-2-({4-[2-(morpholin-4-yl)-1,3-thiazol-4-yl]phenyl}amino)imidazo[1,2-a]pyrimido[5,4-e]pyrimidin-5(6H)-one] | 10 to 100
O=c1c2cnc(Nc3ccc4c(c3)CC(NC3CC3)C4)nc2n2ccnc2n1-c1c(Cl)cccc1Cl (stereo not drawn) [Example 295, 2-{[2-(cyclopropylamino)-2,3-dihydro-1H-inden-5-yl]amino}-6-(2,6-dichlorophenyl)imidazo[1,2-a]pyrimido[5,4-e]pyrimidin-5(6H)-one] | < 10
O=C(Nc1ccncc1)c1ccc(Nc2ncc3c(=O)n(-c4ccccc4Cl)c4nccn4c3n2)cc1 [Example 49, 4-{[6-(2-chlorophenyl)-5-oxo-5,6-dihydroimidazo[1,2-a]pyrimido[5,4-e]pyrimidin-2-yl]amino}-N-(pyridin-4-yl)benzamide] | 10 to 100
CC(=O)N1CCc2ccc(Nc3ncc4c(=O)n(-c5ccccc5Cl)c5nccn5c4n3)cc21 [Example 12, 2-[(1-acetyl-2,3-dihydro-1H-indol-6-yl)amino]-6-(2-chlorophenyl)imidazo[1,2-a]pyrimido[5,4-e]pyrimidin-5(6H)-one] | < 10
COc1cc(Nc2ncc3c(=O)n(-c4c(Cl)cccc4Cl)c4nccn4c3n2)ccc1N1CCN(C)CC1 [Example 148, 6-(2,6-dichlorophenyl)-2-{[3-methoxy-4-(4-methylpiperazin-1-yl)phenyl]amino}imidazo[1,2-a]pyrimido[5,4-e]pyrimidin-5(6H)-one] | < 10
CN1CCN(c2ccc(Nc3ncc4c(=O)n(-c5ccccc5Cl)c5nncn5c4n3)cc2)CC1 [Example 26, 6-(2-chlorophenyl)-2-{[4-(4-methylpiperazin-1-yl)phenyl]amino}pyrimido[5,4-e][1,2,4]triazolo[4,3-a]pyrimidin-5(6H)-one] | 10 to 100
O=c1c2cnc(Nc3ccc(N4C[C@H]5C[C@@H]4CN5)cc3)nc2n2ccnc2n1-c1c(Cl)cccc1Cl [Example 175, 2-({4-[(1R,4R)-2,5-diazabicyclo[2.2.1]hept-2-yl]phenyl}amino)-6-(2,6-dichlorophenyl)imidazo[1,2-a]pyrimido[5,4-e]pyrimidin-5(6H)-one] | < 10
CN1CCN(c2cccc(Nc3ncc4c(=O)n(-c5ccccc5Cl)c5nccn5c4n3)c2)CC1 [Example 6, 6-(2-chlorophenyl)-2-{[3-(4-methylpiperazin-1-yl)phenyl]amino}imidazo[1,2-a]pyrimido[5,4-e]pyrimidin-5(6H)-one] | < 10
O=c1c2cnc(Nc3ccc4c(c3)CNCC43CC3)nc2n2ccnc2n1-c1c(Cl)cccc1Cl [Example 109, 6-(2,6-dichlorophenyl)-2-(2′,3′-dihydro-1′H-spiro[cyclopropane-1,4′-isoquinolin]-7′-ylamino)imidazo[1,2-a]pyrimido[5,4-e]pyrimidin-5(6H)-one] | < 10
CC(C)NCCOc1ccc(Nc2ncc3c(=O)n(-c4ccccc4Cl)c4nccn4c3n2)cc1Cl [Example 86, 6-(2-chlorophenyl)-2-({3-chloro-4-[2-(propan-2-ylamino)ethoxy]phenyl}amino)imidazo[1,2-a]pyrimido[5,4-e]pyrimidin-5(6H)-one] | < 10
CN1CCN(CCCOc2cccc(Nc3ncc4c(=O)n(-c5ccccc5Cl)c5nccn5c4n3)c2)CC1 [Example 82, 6-(2-chlorophenyl)-2-({3-[3-(4-methylpiperazin-1-yl)propoxy]phenyl}amino)imidazo[1,2-a]pyrimido[5,4-e]pyrimidin-5(6H)-one] | 10 to 100
CCN(CC)CCCOc1ccc(Nc2ncc3c(=O)n(-c4ccccc4Cl)c4nccn4c3n2)cc1C [Example 103, 6-(2-chlorophenyl)-2-({4-[3-(diethylamino)propoxy]-3-methylphenyl}amino)imidazo[1,2-a]pyrimido[5,4-e]pyrimidin-5(6H)-one] | < 10
CC(=O)N1Cc2cc(Nc3ncc4c(=O)n(-c5c(Cl)cccc5Cl)c5nccn5c4n3)ccc2C(C)(C)C1 [Example 318, 2-[(2-acetyl-4,4-dimethyl-1,2,3,4-tetrahydroisoquinolin-7-yl)amino]-6-(2,6-dichlorophenyl)imidazo[1,2-a]pyrimido[5,4-e]pyrimidin-5(6H)-one] | < 10
CN(C)CCN1CCc2cc(Nc3ncc4c(=O)n(-c5c(Cl)cccc5Cl)c5nccn5c4n3)ccc21 [Example 119, 6-(2,6-dichlorophenyl)-2-({1-[2-(dimethylamino)ethyl]-2,3-dihydro-1H-indol-5-yl}amino)imidazo[1,2-a]pyrimido[5,4-e]pyrimidin-5(6H)-one] | < 10
COC[C@@H]1CCCN1c1ccc(Nc2ncc3c(=O)n(-c4ccccc4Cl)c4nccn4c3n2)cc1 [Example 264, 6-(2-chlorophenyl)-2-({4-[(2S)-2-(methoxymethyl)pyrrolidin-1-yl]phenyl}amino)imidazo[1,2-a]pyrimido[5,4-e]pyrimidin-5(6H)-one] | 10 to 100
CC(=O)N1Cc2cc(Nc3ncc4c(=O)n(-c5c(Cl)cc(F)cc5Cl)c5nccn5c4n3)ccc2C2(CC2)C1 [Example 165, 2-[(2′-acetyl-2′,3′-dihydro-1′H-spiro[cyclopropane-1,4′-isoquinolin]-7′-yl)amino]-6-(2,6-dichloro-4-fluorophenyl)imidazo[1,2-a]pyrimido[5,4-e]pyrimidin-5(6H)-one] | < 10
CC1(C)CN(Cc2ccc(-n3ccnc3)cc2)Cc2cc(Nc3ncc4c(=O)n(-c5ccccc5Cl)c5nccn5c4n3)ccc21 [Example 163, 6-(2-chlorophenyl)-2-({2-[4-(1H-imidazol-1-yl)benzyl]-4,4-dimethyl-1,2,3,4-tetrahydroisoquinolin-7-yl}amino)imidazo[1,2-a]pyrimido[5,4-e]pyrimidin-5(6H)-one] | < 10
O=c1c2cnc(Nc3ccc4c(c3)CC(N3CC[C@H](F)C3)C4)nc2n2ccnc2n1-c1c(Cl)cccc1Cl (stereo partly drawn) [Example 306, 6-(2,6-dichlorophenyl)-2-({2-[(3S)-3-fluoropyrrolidin-1-yl]-2,3-dihydro-1H-inden-5-yl}amino)imidazo[1,2-a]pyrimido[5,4-e]pyrimidin-5(6H)-one] | < 10
O=c1c2cnc(Nc3ccc(N4CCCC(F)(F)C4)cc3)nc2n2ccnc2n1-c1c(Cl)cccc1Cl [Example 154, 6-(2,6-dichlorophenyl)-2-{[4-(3,3-difluoropiperidin-1-yl)phenyl]amino}imidazo[1,2-a]pyrimido[5,4-e]pyrimidin-5(6H)-one] | < 10
O=c1c2cnc(Nc3ccc(N4CCN5CCCCC5C4)cc3)nc2n2ccnc2n1-c1ccccc1Cl (stereo not drawn) [Example 208, 6-(2-chlorophenyl)-2-{[4-(octahydro-2H-pyrido[1,2-a]pyrazin-2-yl)phenyl]amino}imidazo[1,2-a]pyrimido[5,4-e]pyrimidin-5(6H)-one] | < 10
CC(C)S(=O)(=O)N1Cc2cc(Nc3ncc4c(=O)n(-c5c(Cl)cccc5Cl)c5nccn5c4n3)ccc2C2(CC2)C1 [Example 286, 6-(2,6-dichlorophenyl)-2-{[2′-(propan-2-ylsulfonyl)-2′,3′-dihydro-1′H-spiro[cyclopropane-1,4′-isoquinolin]-7′-yl]amino}imidazo[1,2-a]pyrimido[5,4-e]pyrimidin-5(6H)-one] | < 10
O=C(NC1CCCCC1)c1ccc(Nc2ncc3c(=O)n(-c4ccccc4Cl)c4nccn4c3n2)cc1 [Example 41, 4-{[6-(2-chlorophenyl)-5-oxo-5,6-dihydroimidazo[1,2-a]pyrimido[5,4-e]pyrimidin-2-yl]amino}-N-cyclohexylbenzamide] | 10 to 100
CC(=O)N1CC2(CCN(c3ccc(Nc4ncc5c(=O)n(-c6c(Cl)cccc6Cl)c6nccn6c5n4)cc3)CC2)C1 [Example 298, 2-{[4-(2-acetyl-2,7-diazaspiro[3.5]non-7-yl)phenyl]amino}-6-(2,6-dichlorophenyl)imidazo[1,2-a]pyrimido[5,4-e]pyrimidin-5(6H)-one] | < 10
O=c1c2cnc(Nc3ccc(N4CCNCC4)nc3)nc2n2ccnc2n1-c1c(Cl)cc(F)cc1Cl [Example 173, 6-(2,6-dichloro-4-fluorophenyl)-2-{[6-(piperazin-1-yl)pyridin-3-yl]amino}imidazo[1,2-a]pyrimido[5,4-e]pyrimidin-5(6H)-one] | < 10
